This is an account of results in ChEMBL document CHEMBL4152237, “Identification of novel β-lactams and pyrrolidinone derivatives as selective Histamine-3 receptor (H3R) modulators as possible anti-obesity agents” (Eur J Med Chem, 2018).

The subject of series [1] is Mus musculus. In words: Anorexic effect in diet-induced obese C57BL/6J mouse assessed as reduction in cumulative food intake at 20 mg/kg, po pretreated for 30 mins followed by food addition measured after 4 hrs. In kind it is functional, organism-based.
Series [2] concerns the target T1, Histamine H3 receptor (Homo sapiens, UniProt Q9Y5N1). The experiment in a line: Agonist activity at human H3R expressed in HEK293 cells harboring glosensor-22F cAMP plasmid DNA assessed as inhibition of forskolin-stimulated cAMP accumulation preincubated with cells followed by forskolin addition measured after 10 mins by luminescence assay. In kind it is functional, cell-based. The following applies: read-out: EC50. A general note: cAMP levels reflect the balance of adenylyl cyclase and phosphodiesterase activity.

Series [3] has as its target Histamine H2 receptor (Homo sapiens) (UniProt P25021). In words: Agonist activity at H2R (unknown origin) expressed in HEK293 cells harboring glosensor-22F cAMP plasmid DNA assessed as inhibition of forskolin-stimulated cAMP accumulation at 10 uM preincubated with cells followed by forskolin addition measured after 10 mins by luminescence assay. The format is functional, cell-based.

Series [4] concerns the target Histamine H1 receptor (Homo sapiens) (UniProt P35367). The experiment in a line: Agonist activity at H1R (unknown origin) expressed in HEK293 cells harboring luc2P/NFAT-RE plasmid at 10 uM after 6 to 8 hrs by luciferase reporter gene assay. In kind it is functional, cell-based. (A reporter such as luciferase makes a cellular process visible.)
Series [5] has as its target T2, 5-hydroxytryptamine receptor 2C (Homo sapiens) (UniProt P28335).
T2 sequence (whole entry): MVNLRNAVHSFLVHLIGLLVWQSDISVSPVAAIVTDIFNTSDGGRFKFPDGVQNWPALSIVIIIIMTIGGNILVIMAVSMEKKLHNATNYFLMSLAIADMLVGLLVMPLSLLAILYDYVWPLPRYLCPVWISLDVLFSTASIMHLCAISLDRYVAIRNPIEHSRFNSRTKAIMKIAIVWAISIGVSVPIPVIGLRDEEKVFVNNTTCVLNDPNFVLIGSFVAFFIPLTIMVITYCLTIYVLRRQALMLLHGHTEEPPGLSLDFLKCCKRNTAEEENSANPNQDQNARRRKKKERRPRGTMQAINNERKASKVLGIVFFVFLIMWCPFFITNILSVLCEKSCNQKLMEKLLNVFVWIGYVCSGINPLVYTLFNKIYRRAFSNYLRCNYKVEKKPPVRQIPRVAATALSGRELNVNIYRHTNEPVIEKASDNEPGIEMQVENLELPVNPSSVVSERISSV
The experiment in a line: Antagonist activity at human 5-HT2C expressed in HEK293 cells harboring luc2P/NFAT-RE plasmid at 10 uM after 6 to 8 hrs by luciferase reporter gene assay. The format is functional, cell-based.

The target of series [6] is Histamine H4 receptor (Homo sapiens) (UniProt Q9H3N8). In words: Agonist activity at H4R (unknown origin) expressed in HEK293 cells harboring glosensor-22F cAMP plasmid DNA assessed as inhibition of forskolin-stimulated cAMP accumulation at 10 uM preincubated with cells followed by forskolin addition measured after 10 mins by luminescence assay. In kind it is functional, cell-based.
Chain of Histamine H4 receptor (Homo sapiens) (Q9H3N8 whole entry): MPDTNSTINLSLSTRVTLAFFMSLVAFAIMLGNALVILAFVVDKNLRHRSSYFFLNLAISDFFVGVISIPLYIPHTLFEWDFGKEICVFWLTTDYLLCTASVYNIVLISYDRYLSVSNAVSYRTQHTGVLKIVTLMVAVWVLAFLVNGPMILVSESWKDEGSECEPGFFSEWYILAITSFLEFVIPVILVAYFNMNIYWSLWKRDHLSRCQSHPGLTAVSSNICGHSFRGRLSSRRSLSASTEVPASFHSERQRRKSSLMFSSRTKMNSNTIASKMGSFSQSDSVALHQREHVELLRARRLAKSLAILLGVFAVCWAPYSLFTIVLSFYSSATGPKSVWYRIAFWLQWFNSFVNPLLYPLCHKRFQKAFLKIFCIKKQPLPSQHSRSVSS

Series [7] deals with HEK-293T. In words: Cytotoxicity against HEK293T cells assessed as reduction in cell viability at 1 to 10 uM after 24 hrs by XTT assay. The following applies: human. In kind it is cell-based. (Tetrazolium assays rely on reduction of a dye to a coloured formazan, in cell work by metabolically active cells.)
Series [8] concerns Mus musculus. The experiment in a line: Anorexic effect in diet-induced obese C57BL/6J mouse assessed as reduction in cumulative food intake at 10 mg/kg, po pretreated for 30 mins followed by food addition measured after 4 hrs. The format is functional, organism-based.
Series [9] deals with Histamine H4 receptor (Homo sapiens) (UniProt Q9H3N8). In words: Antagonist activity at H4R (unknown origin) expressed in HEK293 cells harboring glosensor-22F cAMP plasmid DNA assessed as effect on forskolin-stimulated cAMP accumulation at 10 uM preincubated with cells followed by forskolin addition measured after 10 mins by luminescence assay. In kind it is functional, cell-based.

Series [10] concerns the target Histamine H1 receptor (Homo sapiens) (UniProt P35367). The experiment in a line: Antagonist activity at H1R (unknown origin) expressed in HEK293 cells harboring luc2P/NFAT-RE plasmid at 10 uM after 6 to 8 hrs by luciferase reporter gene assay. The format is functional, cell-based.
Series [11] has as its target Luciferin 4-monooxygenase (Photinus pyralis) (UniProt P08659). The experiment in a line: Inhibition of firefly luciferase activity expressed in HEK293 cells assessed as reduction in forskolin-stimulated cAMP accumulation up to 10 uM preincubated with cells followed by forskolin addition measured after 10 mins by luminescence assay. In kind it is cell-based.
For series [12], the target named is T2, 5-hydroxytryptamine receptor 2C (Homo sapiens). In words: Agonist activity at human 5-HT2C expressed in HEK293 cells harboring luc2P/NFAT-RE plasmid at 10 uM after 6 to 8 hrs by luciferase reporter gene assay. The format is functional, cell-based.
Series [13] is described as follows: Octanol/water partition co-efficient, log P of the compound after 24 hrs by HPLC based shake-flask method. The format is physicochemical.
Series [14] addresses Histamine H2 receptor (Homo sapiens) (UniProt P25021). In words: Antagonist activity at H2R (unknown origin) expressed in HEK293 cells harboring glosensor-22F cAMP plasmid DNA assessed as effect on forskolin-stimulated cAMP accumulation at 10 uM preincubated with cells followed by forskolin addition measured after 10 mins by luminescence assay. In kind it is functional, cell-based.

Series [15] addresses T1, Histamine H3 receptor. The experiment in a line: Agonist activity at human H3R expressed in HEK293 cells harboring glosensor-22F cAMP plasmid DNA assessed as inhibition of forskolin-stimulated cAMP accumulation at 1 uM preincubated with cells followed by forskolin addition measured after 10 mins in presence of H3R antagonist GSK334429 by luminescence assay. The format is functional, cell-based.

The source made the active and inactive calls. Unless noted, the rule behind the calls is not given here.

Chain of Histamine H2 receptor (Homo sapiens) (P25021 whole entry): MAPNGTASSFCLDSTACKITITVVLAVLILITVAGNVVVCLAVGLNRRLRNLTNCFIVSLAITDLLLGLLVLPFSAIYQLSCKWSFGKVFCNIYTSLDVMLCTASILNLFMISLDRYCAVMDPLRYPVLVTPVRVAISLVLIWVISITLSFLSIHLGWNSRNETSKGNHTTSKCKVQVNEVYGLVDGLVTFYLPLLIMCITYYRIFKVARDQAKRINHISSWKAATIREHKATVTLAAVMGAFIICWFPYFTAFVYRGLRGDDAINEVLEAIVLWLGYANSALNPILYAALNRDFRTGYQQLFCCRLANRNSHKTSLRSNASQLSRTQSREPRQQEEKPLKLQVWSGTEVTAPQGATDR
T1 sequence (Q9Y5N1 whole entry): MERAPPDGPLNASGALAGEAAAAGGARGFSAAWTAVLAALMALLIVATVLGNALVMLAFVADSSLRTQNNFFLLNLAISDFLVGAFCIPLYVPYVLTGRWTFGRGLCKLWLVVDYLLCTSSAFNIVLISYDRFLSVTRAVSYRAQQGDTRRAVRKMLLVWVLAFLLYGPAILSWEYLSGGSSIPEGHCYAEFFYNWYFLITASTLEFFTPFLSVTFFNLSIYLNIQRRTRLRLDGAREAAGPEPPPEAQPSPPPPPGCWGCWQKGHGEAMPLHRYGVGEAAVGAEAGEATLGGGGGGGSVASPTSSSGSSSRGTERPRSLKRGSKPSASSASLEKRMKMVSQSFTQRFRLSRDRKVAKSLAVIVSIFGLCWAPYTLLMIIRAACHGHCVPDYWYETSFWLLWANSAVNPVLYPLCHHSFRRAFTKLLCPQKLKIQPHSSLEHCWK
Chain of Luciferin 4-monooxygenase (Photinus pyralis) (P08659 whole entry): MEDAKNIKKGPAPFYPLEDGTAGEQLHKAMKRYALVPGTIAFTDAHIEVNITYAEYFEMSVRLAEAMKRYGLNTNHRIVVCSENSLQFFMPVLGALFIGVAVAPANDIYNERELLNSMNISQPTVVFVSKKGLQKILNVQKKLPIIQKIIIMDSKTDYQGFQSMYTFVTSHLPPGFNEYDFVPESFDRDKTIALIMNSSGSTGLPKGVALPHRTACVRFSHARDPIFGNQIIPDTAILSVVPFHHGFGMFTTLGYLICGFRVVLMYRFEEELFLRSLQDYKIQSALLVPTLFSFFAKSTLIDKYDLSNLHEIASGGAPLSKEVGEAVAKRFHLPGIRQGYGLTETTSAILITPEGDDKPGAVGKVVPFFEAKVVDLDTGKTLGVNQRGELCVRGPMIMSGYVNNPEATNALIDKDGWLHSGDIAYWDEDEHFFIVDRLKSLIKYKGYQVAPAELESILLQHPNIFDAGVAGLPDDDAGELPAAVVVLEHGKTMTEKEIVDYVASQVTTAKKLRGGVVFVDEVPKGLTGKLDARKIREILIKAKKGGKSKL
Chain of Histamine H1 receptor (Homo sapiens) (P35367 whole entry): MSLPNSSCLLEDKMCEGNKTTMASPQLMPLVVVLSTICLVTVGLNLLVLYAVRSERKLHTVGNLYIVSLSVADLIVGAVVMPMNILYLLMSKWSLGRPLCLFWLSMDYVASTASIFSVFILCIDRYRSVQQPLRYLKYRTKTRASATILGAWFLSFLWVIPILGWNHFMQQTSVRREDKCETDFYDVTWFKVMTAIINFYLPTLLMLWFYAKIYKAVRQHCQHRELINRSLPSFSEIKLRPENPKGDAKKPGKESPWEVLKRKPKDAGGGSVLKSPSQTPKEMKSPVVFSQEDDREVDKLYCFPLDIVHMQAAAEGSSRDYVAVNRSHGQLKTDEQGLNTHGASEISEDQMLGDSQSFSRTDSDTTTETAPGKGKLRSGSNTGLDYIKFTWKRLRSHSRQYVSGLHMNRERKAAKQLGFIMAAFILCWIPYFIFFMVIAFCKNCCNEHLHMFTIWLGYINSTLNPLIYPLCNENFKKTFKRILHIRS

The term EC50 denotes the concentration needed to bring the measured effect to its halfway point. The term logP denotes the decadic logarithm of the partition coefficient of the neutral form, usually between octanol and water. For the compound `COc1cc(NC2(c3cccc(Cl)c3)C(=O)N(C(C)(C)C)C(=O)/C2=C/c2ccccc2)cc(OC)c1OC` (stereo unspecified), in [1], the result was Active. Further, the EC50 in series [2] worked out at 2.7 nM. In addition, the inhibition result in series [3], in [5], in series [6], in series [9], in series [10] and in [11] was “inactive” each time. The inhibition entry in series [14] and in series [15] was “inactive” each time. The result in series [4], in series [8] and in series [12] was inactive. In addition, in series [7], the Activity entry is reported as “Non-Toxic”. In addition, the logP at 24 h in series [13] came out at 2.96.

On to `COc1ccc(NC2(c3cccc(Cl)c3)C(=O)N(C3CCCCC3)C(=O)/C2=C/c2ccccc2)cc1OC` (stereo unspecified), for which the EC50 in [2] is 2.7 nM. Besides, the inhibition result in [3], in series [5], in series [6], in series [9], in [10] and in [11] was “inactive” each time. Further, the inhibition result in [14] and in [15] was “inactive” throughout. Also, the outcome in [4] and in [12] was inactive. In addition, the Activity result in series [7] is recorded as “Non-Toxic”. Also, the logP at 24 h in series [13] worked out at 2.45.

Turning to `O=C1C=CC2(C=C1)C(c1ccccc1)=CC(=O)N2C(C(=O)NC1CCCCC1)c1ccc(Cl)cc1` (stereo unspecified), the EC50 in series [2] came out at 104 nM. Besides, the inhibition entry in [3], in series [5], in series [6], in series [9], in [10] and in series [11] was “inactive” throughout. Further, the inhibition entry in series [14] and in [15] was “inactive” throughout. Besides, the result in [4] and in series [12] was inactive. Besides, the Activity result in series [7] is on record as “Non-Toxic”. This compound also displayed a logP at 24 h in [13] of 3.8.

For `COc1ccc(C(C(=O)NC2CCCCC2)N2C(=O)C(c3ccc(C(F)(F)F)cc3)=C(c3ccccc3)C23C=CC(=O)C=C3)c(OC)c1OC` (stereo unspecified), in [2], the EC50 was found to be 13 nM. Moreover, the inhibition entry in series [3], in series [5], in [6], in series [9], in series [10] and in series [11] was “inactive” each time. Besides, the inhibition entry in series [14] and in series [15] was “inactive” each time. Also, the outcome in series [4] and in series [12] was inactive. The Activity entry in [7] is on record as “Non-Toxic”. The logP at 24 h in series [13] was found to be 2.74.

With `C[C@H]1CNCCc2ccc(Cl)cc21`, the result in series [8] was Active.

For the compound `COc1cc(N2C(=O)C(=Cc3ccccc3)C2(C(=O)NC2CCCCC2)c2ccc(F)cc2)cc(OC)c1OC` (stereo unspecified), the EC50 in series [2] turned out to be 104 nM. For the same compound, the inhibition result in series [3], in series [5], in [6], in [9], in series [10] and in series [11] was “inactive” in each case. In addition, the inhibition entry in series [14] and in series [15] was “inactive” throughout. The outcome in [4] and in series [12] was inactive. In [7], the Activity entry is on record as “Non-Toxic”. Besides, in [13], the logP at 24 h was 1.85.

As to `COc1cc(N2C(=O)C(=Cc3ccccc3)C2(C(=O)NC(C)(C)C)c2cc(F)cc(F)c2)cc(OC)c1OC` (stereo unspecified), in series [2], the EC50 came to 0.3 nM. The inhibition result in series [3], in series [5], in [6], in series [9], in series [10] and in series [11] was “inactive” each time. The inhibition result in series [14] and in series [15] was “inactive” throughout. Also, the outcome in [4] and in series [12] was inactive. Besides, the Activity result in series [7] is on record as “Non-Toxic”. Also, in series [13], the logP at 24 h was 2.34.
